# In publication PMC9820345, “Metal Complexes of a 5-Nitro-8-Hydroxyquinoline-Proline Hybrid with Enhanced Water Solubility Targeting Multidrug Resistant Cancer Cells” (International Journal of Molecular Sciences, 2022):
# Where two headings read alike, the source gives them in different places.
# What was measured:
# [1] = tested on: MES-SA; assay: In vitro cytotoxicity, MES-SA cells (fluorescent protein readout); format: cell-based, human; settings: 144 h exposure
# From the text: (§1) Cell lines: all cell culture reagents were obtained from Sigma-Aldrich; plasticware was purchased from Sarstedt (Nümbrecht, Germany); Human colon Colo205 (chemo-sensitive, ATCC-CCL-222) and Colo320 (Pgp/MDR1-expressing, doxorubicin-resistant, ATCC-CCL-220.1) adenocarcinoma cell lines were purchased from LGC Promochem, Teddington, UK; MES-SA and MES-SA/Dx5 uterine sarcoma cell lines were obtained from ATCC, where they were characterized by DNA fingerprinting. The expression of the Pgp efflux pump of MES-SA/Dx5 was proven by Western blot analysis in our former report, and was also reported for the Colo320 cells. The MES-SA and MES-SA/Dx5 cells used in this study were previously engineered to express the fluorescent proteins mCherry and eGFP, respectively, by lentiviral transduction.
# (§2) MES-SA cell lines were maintained in DMEM, supplemented with 10% fetal bovine serum, 5 mmol/L glutamine, and 50 units/mL penicillin and streptomycin. Cells were tested and resulted negative for mycoplasma contamination with the MycoAlert mycoplasma detection Kit (Lonza Group, Basel, Switzerland). One week prior to the cytotoxicity assays, Dx5 eGFP cells were selected in 500 nM doxorubicin for one passage to ensure the overexpression of P-glycoprotein.
# (§3) Cytotoxicity assays: The tested compounds were dissolved in PBS buffer to prepare 5 mM stock solutions, which were diluted in complete culture medium.
# (§4) In the case of the MES-SA and MES-SA/Dx5 cells, cell suspensions of the fluorescent cell lines were pre-mixed in a 1:1 ratio and seeded in 20 µL medium in a density of 2500 cells/well (1250 cells/well each) in a 384-well plate. After an overnight incubation, a serial dilution of the compounds was added to the plate in a final volume of 60 µL. The P-gp inhibitor tariquidar was added to the cells 15 min prior to the test compounds. After 144 h of incubation, plates were measured for the fluorescent intensity of mCherry (EX/EM: 585 nm/610 nm) and eGFP (EX/EM: 485 nm/510 nm). Cell seeding, aspiration of medium, and addition of drugs were performed by a Hamilton StarLet automated liquid handling robot.
# (§5) Inhibition of the cell growth (expressed as IC50: inhibitory concentration that reduces by 50% the growth of the cells exposed to the tested compounds) was determined from the sigmoid curve where 100 − ((ODsample − ODmedium control)/(ODcell control − ODmedium control)) × 100 values were plotted against the logarithm of compound concentrations. Curves for the data obtained on Colo205 and Colo320 cells were fitted by GraphPad Prism software (2021, Graphpad Software, version 7.00, San Diego, CA, USA) using the sigmoidal dose–response model (comparing variable and fixed slopes). From the MES-SA cell data, the IC50 values were calculated by our custom program, written by J. Sessler in C#. The p values were calculated by Student’s t-test. The IC50 values were always obtained from at least three independent experiments.
# [2] = tested on: MES-SA/Dx5; assay: In vitro cytotoxicity, MES-SA/Dx5 cells (fluorescent protein readout); format: cell-based, human; settings: for IC50: 144 h exposure; for Selectivity ratio IC50 (MES-SA)/IC50 (MES-SA/Dx5): calculated from IC50 values in Table 4
# From the text: as §1, §2, §3, §4, §5
# [3] = tested on: Colo205; assay: In vitro cytotoxicity, Colo205 cells (MTT); format: cell-based, human; settings: 72 h exposure
# From the text: as §1
# (§6) The colon adenocarcinoma cells were cultured in RPMI 1640 medium supplemented with 10% heat-inactivated fetal bovine serum, 2 mM L-glutamine, 1 mM sodium pyruvate, and 100 mM HEPES. The cells were incubated at 37 °C, in a 5% CO2, 95% air atmosphere.
# as §3
# (§7) In the case of the Colo205 and Colo320 cells, two-fold serial dilutions were prepared in 100 μL medium. The semi-adherent colon adenocarcinoma cells were treated with Trypsin-Versene (EDTA) solution. They were adjusted to a density of 1 × 10^4 cells in 100 μL of RPMI 1640 medium and were added to each well, with the exception of the medium control wells. The final volume of the wells containing compounds and cells was 200 μL. The plates containing Colo205 and Colo320 cells were incubated at 37 °C for 72 h; at the end of the incubation period, 20 μL of 3-(4,5-dimethyl-2-thiazolyl)-2,5-diphenyl-2H-tetrazolium bromide (MTT) solution (from a stock solution of 5 mg/mL) was added to each well. After incubation at 37 °C for 4 h, 100 μL of sodium dodecyl sulfate (SDS) solution (10% in 0.01 M HCI) was added to each well, and the plates were further incubated at 37 °C overnight. Cell growth was determined by measuring the optical density (OD) at 540/630 nm with a Multiskan EX plate reader (Thermo Labsystems, Cheshire, WA, USA).
# as §5, with “From the MES-SA cell data, the IC50 values were calculated by our custom program, written by J. Sessler in C#. The p values were calculated by Student’s t-test. The IC50 values were always obtained from at least three independent experiments.” left out
# [4] = tested on: Colo320; assay: In vitro cytotoxicity, Colo320 cells (MTT); format: cell-based, human; settings: for IC50: 72 h exposure; for Selectivity ratio IC50 (Colo205)/IC50 (Colo320): calculated from IC50 values in Table 4
# From the text: as §1, §6, §3, §7, §5
# [5] = tested on: Enterococcus faecalis (ATCC 29212); assay: Antibacterial effect, MIC determination; format: cell-based; settings: visual inspection, read-out: minimum inhibitory concentration (MIC)
# Protocol: (§8) Escherichia coli (ATCC 25922), Klebsiella pneumoniae (ATCC 49618) were used as Gram-negative strains; and Staphylococcus aureus (ATCC 25923, methicillin-resistant (MRSA)), and Enterococcus faecalis (ATCC 29212) strains were applied as Gram-positive bacterial cultures in the experiments. MIC values of the complexes were determined in 96-well plates based on the Clinical and Laboratory Standard Institute guidelines (CLSI guidelines). The stock solutions of the compounds (dissolved in PBS buffer using 5 mM concentration) were diluted in 100 μL of Mueller Hinton Broth. Then, 10^−4 dilution of an overnight bacterial culture in 100 μL of medium was added to each well, with the exception of the medium control wells.
# [6] = tested on: Escherichia coli (ATCC 25922); assay: Antibacterial effect, MIC determination; format: cell-based; settings: visual inspection, read-out: minimum inhibitory concentration (MIC)
# Protocol: as §8
# [7] = tested on: Klebsiella pneumoniae (ATCC 49618); assay: Antibacterial effect, MIC determination; format: cell-based; settings: visual inspection, read-out: minimum inhibitory concentration (MIC)
# Protocol: as §8
# [8] = tested on: Staphylococcus aureus (ATCC 25923, methicillin-resistant (MRSA)); assay: Antibacterial effect, MIC determination; format: cell-based; settings: methicillin-resistant S. aureus (MRSA), 18 h, visual inspection, read-out: minimum inhibitory concentration (MIC)
# Protocol: as §8
"MIC ([5]; ATCC29212, 18 h)","MIC ([6]; ATCC25922, 18 h)","MIC ([7]; ATCC49618, 18 h)",MIC ([8]; Staphylococcus aureus),Compound,"IC50 ([1]; Homo sapiens, MES-SA)","IC50 ([2]; Homo sapiens, MES-SA/Dx5)",Selectivity ratio IC50 (MES-SA)/IC50 (MES-SA/Dx5) [2],"IC50 ([3]; Homo sapiens, COLO 205)","IC50 ([4]; Homo sapiens, COLO 320)",Selectivity ratio IC50 (Colo205)/IC50 (Colo320) [4],IC50 [1],IC50 [2],IC50 [3],IC50 [4],MIC ([5]; 18 h),MIC ([6]; 18 h),MIC ([7]; 18 h),MIC [8]
> 100 µM,> 100 µM,> 100 µM,> 100 µM,"O=C(O)[C@@H]1CCCN1Cc1cc([N+](=O)[O-])c2cccnc2c1O [HQNO2-L-Pro, (2S)-1-((8-hydroxy-5-nitroquinolin-7-yl)methyl)pyrrolidin-1-ium-2-carboxylate]",226 ± 17 µM,97 ± 29 µM,2.33,34 ± 1 µM,32.4 ± 0.4 µM,1.06,,,,,,,,
,,,,"CC1=C(C)[C](C)([Rh]([Cl])[O]c2c(C[NH+]3CCC[C@H]3C(=O)O)cc([N+](=O)[O-])c3cccnc23)C(C)=C1C.[Cl-] [RhCp*-HQNO2-L-Pro, [RhCp*(HQNO2-L-Pro)Cl]Cl]",,,1.58,,,1.16,167 ± 38 µM,106 ± 8 µM,35 ± 1 µM,29.8 ± 0.2 µM,> 100 µM,> 100 µM,> 100 µM,50 µM
,,,,"Cc1ccc(C(C)C)cc1.O=C(O)[C@@H]1CCC[NH+]1Cc1cc([N+](=O)[O-])c2ccc[n+]3c2c1[O][Ru-]3[Cl].[Cl-] [RuCym-HQNO2-L-Pro, [RuCym(HQNO2-L-Pro)Cl]Cl]",,,≤ 0.42,,,,166 ± 37 µM,> 400 µM,> 100 µM,> 100 µM,> 100 µM,> 100 µM,> 100 µM,> 100 µM
